Laboratory results published in patent US20100227853A1, “INHIBITORS OF CYCLIC AMP PHOSPHODIESTERASES” (Trustees of Boston College, priority 2008, published 2010).
Where two headings read alike, the source gives them in different places. Blank lines part the entries; values can stand above or below the compound they belong to.

Tests used:
PDE4D2 = molecular target: T1, PDE4D2 (Homo sapiens, UniProt Q08499); assay: 5FOA growth assay in fission yeast strain expressing PDE4D2; assay type: cell-based; conditions: OD600 0.6; read-out: ED50 for 5FOA growth assays, PDE4D2
T1 construct: targets used in the assays are full-length proteins (as opposed to simply the catalytic domain); expressed in transfected cells; host or cells: Schizosaccharomyces pombe
Experimental: (§1) Cells were pregrown in EMM medium [MP Biomedicals (Solon, Ohio), 3% glucose, filter-sterilized to avoid carmelization, which would introduce variability into the optical density of the medium] containing from 0 mM to 2.5 mM cAMP (or either 0.5 mM or 1.0 mM cGMP). This was to repress expression of the fbp1-ura4 reporter prior to exposure of cells to 5FOA medium. Cells were grown at 30° C. to exponential phase (approximately 10^7 cells/ml). […] Starting cell concentrations ranged from 0.5×10^5 to 4×10^5 cells/ml depending on the screening strain. […] Other positive control dishes contained 5 mM cAMP in the 5FOA medium for PDEs that lack appropriate control compounds. Cultures were grown for 48 hours at 30° C., sealed in an airtight container with moist paper towels to prevent evaporation. Optical densities (OD600) of cultures were measured using a microplate reader. Bioinformatic analysis of the results to determine composite Z scores was performed as previously described (1, 3).

PDE4B2 = PDE4B2 (Homo sapiens, UniProt Q07343); assay: 5FOA growth assay in fission yeast strain expressing PDE4B2; assay type: cell-based; design: targets used in the assays are full-length proteins (as opposed to simply the catalytic domain); expressed in transfected cells; host or cells: Schizosaccharomyces pombe; conditions: OD600 0.6
Experimental: as §1

PDE4B3 = molecular target: T2, PDE4B3 (Mus musculus, UniProt Q8VBU5); assay: cAMP response in yeast strain expressing PDE4B3; assay type: cell-based, Murine
T2 construct: targets used in the assays are full-length proteins (as opposed to simply the catalytic domain); expressed in transfected cells; host or cells: Schizosaccharomyces pombe, PDE gene integrated in place of cgs2
T2 sequence (Q8VBU5 1-721): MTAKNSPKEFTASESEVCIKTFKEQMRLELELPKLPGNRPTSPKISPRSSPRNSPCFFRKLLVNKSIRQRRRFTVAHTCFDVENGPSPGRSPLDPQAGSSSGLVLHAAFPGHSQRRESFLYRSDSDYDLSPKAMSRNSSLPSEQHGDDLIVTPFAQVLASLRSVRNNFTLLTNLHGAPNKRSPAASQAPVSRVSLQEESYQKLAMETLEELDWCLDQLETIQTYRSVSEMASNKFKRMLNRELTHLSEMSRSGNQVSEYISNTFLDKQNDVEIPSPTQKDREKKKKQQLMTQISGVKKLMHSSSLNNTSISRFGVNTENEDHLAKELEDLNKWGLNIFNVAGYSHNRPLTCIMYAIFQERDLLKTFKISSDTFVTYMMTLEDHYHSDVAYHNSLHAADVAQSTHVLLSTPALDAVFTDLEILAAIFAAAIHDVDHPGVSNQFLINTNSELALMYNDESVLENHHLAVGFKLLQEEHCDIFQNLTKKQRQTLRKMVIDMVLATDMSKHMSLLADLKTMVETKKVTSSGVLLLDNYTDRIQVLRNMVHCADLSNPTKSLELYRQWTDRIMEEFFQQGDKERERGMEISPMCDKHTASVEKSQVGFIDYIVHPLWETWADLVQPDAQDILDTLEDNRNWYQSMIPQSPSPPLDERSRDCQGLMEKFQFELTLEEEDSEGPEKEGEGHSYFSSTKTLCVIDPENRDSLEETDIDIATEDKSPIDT
Text: (§2) Values represent the average and SD of two or three independent experiments. […] The strains used are as in FIG. 5A, together with strain CHP1141 (PDE8A). Values represent the average and SD of two or three independent experiments.
(§3) Thus, PDE inhibition can be indirectly quantitated by measuring the effect of a compound on cAMP levels in target yeast strains.

PDE4A1 = molecular target: T3, PDE4A1 (Mus musculus, UniProt O89084); assay: cAMP response in yeast strain expressing PDE4A1; assay type: cell-based, Murine
T3 construct: targets used in the assays are full-length proteins (as opposed to simply the catalytic domain); expressed in transfected cells; host or cells: Schizosaccharomyces pombe, PDE gene integrated in place of cgs2
T3 sequence (O89084 1-610 isoform O89084-2): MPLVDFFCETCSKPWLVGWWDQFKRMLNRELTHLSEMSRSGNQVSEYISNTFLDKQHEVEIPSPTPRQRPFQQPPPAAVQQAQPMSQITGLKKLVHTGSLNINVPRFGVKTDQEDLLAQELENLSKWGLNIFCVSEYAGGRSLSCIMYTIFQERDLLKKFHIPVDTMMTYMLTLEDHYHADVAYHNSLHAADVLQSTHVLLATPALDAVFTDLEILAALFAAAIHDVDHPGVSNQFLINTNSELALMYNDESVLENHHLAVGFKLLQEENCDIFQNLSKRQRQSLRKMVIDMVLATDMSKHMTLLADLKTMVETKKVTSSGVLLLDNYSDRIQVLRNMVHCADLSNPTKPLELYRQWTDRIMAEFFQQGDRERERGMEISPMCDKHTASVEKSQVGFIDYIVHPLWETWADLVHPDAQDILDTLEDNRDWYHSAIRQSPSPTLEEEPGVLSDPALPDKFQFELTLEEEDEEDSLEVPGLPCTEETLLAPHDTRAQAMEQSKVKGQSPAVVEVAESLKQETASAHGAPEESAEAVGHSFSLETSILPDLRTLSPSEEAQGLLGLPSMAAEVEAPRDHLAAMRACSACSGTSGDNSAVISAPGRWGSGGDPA
Text: as §2, §3

[1] = tested on: PDE4A, PDE4B, PDE4D, PDE7A, PDE7B, PDE8A, PDE3A; assay: Summary of PDE inhibitor profile; design: key: (1): Strong PDE7A inhibitor, weak to moderate PDE4A, 4B inhibitor; (2): Strong PDE7A and PDE4s (including PDE4D) inhibitor; (3): Strong PDE7A inhibitor; conditions: overall classification, Table 18 footnotes

T1 sequence (Q08499 303-809): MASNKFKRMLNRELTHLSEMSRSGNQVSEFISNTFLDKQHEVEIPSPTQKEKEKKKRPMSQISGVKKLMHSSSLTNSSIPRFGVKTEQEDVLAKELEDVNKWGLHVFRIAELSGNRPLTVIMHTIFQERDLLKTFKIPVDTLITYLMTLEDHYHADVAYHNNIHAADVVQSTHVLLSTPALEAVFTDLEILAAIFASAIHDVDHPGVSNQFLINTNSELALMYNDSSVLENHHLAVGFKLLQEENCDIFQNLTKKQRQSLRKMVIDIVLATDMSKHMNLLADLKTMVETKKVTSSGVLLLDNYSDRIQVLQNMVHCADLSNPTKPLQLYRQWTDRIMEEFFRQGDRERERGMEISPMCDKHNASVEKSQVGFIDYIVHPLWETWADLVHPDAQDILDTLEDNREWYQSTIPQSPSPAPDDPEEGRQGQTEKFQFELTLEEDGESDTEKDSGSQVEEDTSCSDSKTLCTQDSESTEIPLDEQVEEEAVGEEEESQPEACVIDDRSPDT
Chain of PDE4B2 (Q07343 1-564 isoform Q07343-2, species assumed): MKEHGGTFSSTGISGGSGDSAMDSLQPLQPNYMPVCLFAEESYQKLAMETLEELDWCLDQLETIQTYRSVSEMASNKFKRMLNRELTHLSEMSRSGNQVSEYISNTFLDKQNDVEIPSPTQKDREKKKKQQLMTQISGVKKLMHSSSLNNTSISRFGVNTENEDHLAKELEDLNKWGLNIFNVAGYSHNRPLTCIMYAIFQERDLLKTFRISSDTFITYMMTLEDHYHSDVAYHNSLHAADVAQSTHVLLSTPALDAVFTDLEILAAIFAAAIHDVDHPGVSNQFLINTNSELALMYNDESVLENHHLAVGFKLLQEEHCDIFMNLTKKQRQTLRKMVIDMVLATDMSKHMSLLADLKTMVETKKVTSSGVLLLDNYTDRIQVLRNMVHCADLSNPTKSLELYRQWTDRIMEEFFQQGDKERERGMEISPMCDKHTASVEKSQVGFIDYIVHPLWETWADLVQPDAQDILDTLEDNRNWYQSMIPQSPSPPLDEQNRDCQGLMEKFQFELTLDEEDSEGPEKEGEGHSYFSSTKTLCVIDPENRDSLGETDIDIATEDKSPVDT

Compound: COC(=O)C1=C(C)N(c2ccccc2Cl)C(=O)/C1=C\c1cccs1 [Compound 27]
cAMP Response (% rolipram), 4B3 (PDE4B3): 71.00 % rolipram
cAMP Response (% rolipram), 4A1 (PDE4A1): 78.00 % rolipram

Compound: COc1ccc2c(c1)[C@@]1(C)CCC[C@](C)(CO)C1CC2 (stereo partly drawn) [Compound 2067M03]
PDE inhibitor profile (Table 18) [1]: 2067M03 (1)

Compound: Cc1ccc2c(c1)CCC1CC(=O)CC[C@]21C (stereo partly drawn) [Compound 2158J12]
PDE inhibitor profile (Table 18) [1]: 2158J12 (2)

Compound: COC(=O)C1=C(C)N(C2CCCCC2)C(=O)/C1=C\c1cccs1 [Compound 22]
cAMP Response (% rolipram), 4B3 (PDE4B3): 51.00 % rolipram
cAMP Response (% rolipram), 4A1 (PDE4A1): 54.00 % rolipram

Compound: N#Cc1sc2sc(C#N)c(-c3ccco3)c2c1N [Compound 30]
cAMP Response, 4B3 (PDE4B3; Table 16, unit not given): 67
cAMP Response, 4A1 (PDE4A1; Table 16, unit not given): 65.7

Next, values leading:

EC50 (PDE4D2): > 200 µM
EC50 (PDE4B2; read-out: ED50 for 5FOA growth assays, PDE4B2): > 200 µM
Compound: Cc1sc2ncnc(Nc3ccccc3)c2c1C [BC64]

EC50 (PDE4B2; value marked (m), read-out: ED50 for 5FOA growth assays, PDE4B2 (m)): 1.7 µM
Compound: CCC1CCc2c(sc3ncnc(N4CCOCC4)c23)C1 (stereo not drawn) [BC33]

EC50 (PDE4D2): 140 µM
Compound: CCN(CC)c1ncnc2sc3c(c12)CCCC3 [BC44]
